One compound from patent US20130095520A1, “METHOD FOR DETECTION OF UROTHELIAL CANCER” (NATIONAL UNIVERSITY CORPORATION KOCHI UNIVERSITY, priority 2010, published 2013) can be followed below.

Where a name gives a salt, the structure may show the parent alone.

This experiment has as its system cancer cells in the urine (urothelial / bladder cancer). Kind of experiment: Detection of PPIX fluorescence in cells of urine collected after oral ALA hydrochloride (fluorescence microscopy of urinary sediment). The conditions noted are these: 1 g ALA hydrochloride oral in 50 ml orange juice; patient suspected of bladder cancer (about 60 kg); urine collected after about 4 hours; FIG. 1. The format is in vivo, human. How it is done: 1 g of ALA hydrochloride was dissolved in 50 ml of orange juice, and was given to a patient suspected of having bladder cancer (body weight about 60 kg). Urine was collected after about 4 hours, which was immediately centrifuged (3000 rpm/min., 15 min.) in a light shielded state, and was confirmed by microscopic visualization using sediments. The microscope used was OLYMPUS BX50CCD mounted with camera OLYMPUS DP70. The mirror set was Exciter: XF1076 400AF30 Dichroic:XF2007 475DCLP, Emitter: XF3090 585ALP (OMEGA OPTICAL), all of which being a standard fluorescence microscope system.
The detection method was performed in the same way as Example 1, except that the dosage amount was changed to 500 mg, which is the half amount of Example 1.

For `NCC(=O)CCC(=O)O` [ALA hydrochloride, 5-aminolevulinic acid], the “PPIX fluorescence in cells separated from the urine” value is “a clear PPIX fluorescence derived from cancer cell was observed”.
